Source: patent US8063204B2, “Benzothiazole and benzoxazole linked pyrrolo[2,1-c] [1, 4] benzodiazepine hybrids as novel antitumour agents and process for the preparation thereof” (Council of Scientific & Industrial Research, priority 2007, dated 2011)

What was measured:
[1] = test system: duplex-form calf thymus DNA (CT-DNA); test: Thermal denaturation studies with calf thymus DNA (DNA binding affinity); conditions: [PBD]:[DNA] molar ratio 1:5, CT-DNA 100 μM, ligand 20 μM, sodium phosphate buffer pH 7.00; for ΔTm after incubation at 37° C. for 0 h: 0 h incubation; for ΔTm after incubation at 37° C. for 18 h: 18 h incubation
Experimental: Compounds have been subjected to thermal denaturation studies with duplex-form calf thymus DNA (CT-DNA) using an modification of a reported procedure (Newman, M. S. Carcinog-compr. Surv. 1976, 1, 203; (b) Hecht, S. S.; Loy, M.; Hoffman, Carcinog-compr. Surv. 1976, 1, 325). Working solutions in aqueous buffer (10 mM NaH2PO4/Na2HPO4, 1 mM Na2EDTA, pH 7.00+0.01) containing CT-DNA (100 μm in phosphate) and the PBD (20 μm) have been prepared by addition of concentrated PBD solutions in DMSO to obtain a fixed [PBD]/[DNA] molar ratio of 1:5. The DNA-PBD solutions have been incubated at 37° C. for 0 and 18 h prior to analysis. Samples have been monitored at 260 nm using a Beckman DU-800 spectrophotometer fitted with high performance temperature controller, and heated at 1° C. min^−1 in the 40-110° C. range. DNA helix→coil transition temperatures (Tm) have been obtained from the maxima in the d(A260)/dT derivative plots. Drug-induced alterations in DNA melting behavior are given by: ΔTm=Tm(DNA+PBD)−Tm(DNA alone), where the Tm value for the PBD-free CT-DNA is 69.1±0.01.
The DNA binding activity for these novel C8-linked benzothiazole, benzoxazole-PBD hybrids has been examined by thermal denaturation studies using calf thymus (CT) DNA. […] The data for the compounds 9a-h is included in Table 1 for comparison.

[2] = test system: sixty human tumour cells derived from nine cancer types; test: cells; type: cell-based; conditions: for Log10GI50 mean graph midpoint (MG_MID) / Log10LC50 mean graph midpoint (MG_MID) / Log10TGI mean graph midpoint (MG_MID): 48 h continuous drug exposure, SRB, mean over human tumour cell lines; for log10 GI50 anticancer activity, range over nine cancer cell types: range across nine cancer cell type
Experimental: (§1) Anticancer activity: In vitro biological activity studies were carried out at the National Cancer Institute (USA).
(§2) The compounds were evaluated for in vitro anticancer activity against sixty human tumour cells derived from nine cancer types (leukemia, non-small-cell lung, colon, CNS, melanoma, ovarian, prostate, and breast cancer) as shown in Table 3. For each compound, dose response curves for each cell line were measured at a minimum of five concentrations at 10 fold dilutions. A protocol of 48 h continuous drug exposure was used and a sulforhodamine B (SRB) protein assay was used to estimate cell viability or growth. The concentration causing 50% cell growth inhibition (GI50), total cell growth inhibition (TGI 0% growth) and 50% cell death (LC50, −50% growth) compared with the control was calculated.

Leukemia = test: NCI in vitro anticancer screen, SRB assay, leukemia panel; type: cell-based, human; conditions: average of six to nine cell lines, 48 h; for GI50: Homo sapiens, read-out: Log10 GI50 (converted)
Experimental: as §1, §2

Non-small-cell-lung = test: NCI in vitro anticancer screen, SRB assay, non-small-cell lung panel; type: cell-based, human; conditions: average of six to nine cell lines, 48 h; for GI50: Homo sapiens, read-out: Log10 GI50 (converted)
Experimental: as §1, §2

Colon = test: NCI in vitro anticancer screen, SRB assay, colon panel; type: cell-based, human; conditions: average of six to nine cell lines, 48 h; for GI50: Homo sapiens, read-out: Log10 GI50 (converted)
Experimental: as §1, §2

CNS = test: NCI in vitro anticancer screen, SRB assay, CNS panel; type: cell-based, human; conditions: average of six to nine cell lines, 48 h; for GI50: Homo sapiens, read-out: Log10 GI50 (converted)
Experimental: as §1, §2

Melanoma = test: NCI in vitro anticancer screen, SRB assay, melanoma panel; type: cell-based, human; conditions: average of six to nine cell lines, 48 h; for GI50: Homo sapiens, read-out: Log10 GI50 (converted)
Experimental: as §1, §2

Ovarian = test: NCI in vitro anticancer screen, SRB assay, ovarian panel; type: cell-based, human; conditions: average of six to nine cell lines, 48 h; for GI50: Homo sapiens, read-out: Log10 GI50 (converted)
Experimental: as §1, §2

Renal = test: NCI in vitro anticancer screen, SRB assay, renal panel; type: cell-based, human; conditions: average of six to nine cell lines, 48 h; for GI50: Homo sapiens, read-out: Log10 GI50 (converted)
Experimental: as §1, §2

Prostate = test: NCI in vitro anticancer screen, SRB assay, prostate panel; type: cell-based, human; conditions: average of six to nine cell lines, 48 h; for GI50: Homo sapiens, read-out: Log10 GI50 (converted)
Experimental: as §1, §2

Breast = test: NCI in vitro anticancer screen, SRB assay, breast panel; type: cell-based, human; conditions: average of six to nine cell lines, 48 h; for GI50: Homo sapiens, read-out: Log10 GI50 (converted)
Experimental: as §1, §2

[3] = against nine human tumor cell lines

SMILES	ΔTm after incubation at 37° C. for 0 h [1] [°C]	ΔTm after incubation at 37° C. for 18 h [1] [°C]	Log10GI50 mean graph midpoint (MG_MID) [2]	Log10LC50 mean graph midpoint (MG_MID) [2]	Log10TGI mean graph midpoint (MG_MID) [2]	log10 GI50 anticancer activity, range over nine cancer cell types [2] [mole/lit]	GI50 (Leukemia) [nM]	GI50 (Non-small-cell-lung) [nM]	GI50 (Colon) [nM]	GI50 (CNS) [nM]	GI50 (Melanoma) [nM]	GI50 (Ovarian) [nM]	GI50 (Renal) [nM]	GI50 (Prostate) [nM]	GI50 (Breast) [nM]	also measured
COc1cc2c(cc1OCCCCCC(=O)Nc1ccc(-c3nc4ccccc4s3)cc1)N=C[C@@H]1CCCN1C2=O [Compound 9g, 7-Methoxy-8-{5-[N^1-(4-(1,3-benzothiazol-2-yl)phenyl)]pentanecarboxamide}oxy-(11aS)-1,2,3,11a-tetra-hydro-5H-pyrrolo[2,1-c][1,4]benzodiazepin-5-one]	4.1	4.3														
COc1cc2c(cc1OCCCCCOc1ccc(-c3nc4ccccc4o3)cc1)N=C[C@@H]1CCCN1C2=O [Compound 9e, 7-Methoxy-8-{5-[4-(1,3-benzoxazol-2-yl)phenoxy]pentyl}oxy-(11aS) 1,2,3,11a-tetra-hydro-5H-pyrrolo[2,1-c][1,4]benzodiazepin-5-one]	0.5	0.5														
COc1cc2c(cc1O)N=CC1CCCN1C2=O (stereo not shown) [DC-81, reference compound]	0.3	0.7														
COc1cc(-c2nc3ccccc3o2)ccc1OCCCCCOc1cc2c(cc1OC)C(=O)N1CCC[C@H]1C=N2 [Compound 9f, 7-Methoxy-8-{5-[4-(1,3-benzoxazol-2-yl)-2-methoxyphenoxy]pentyl}oxy-(11aS) 1,2,3,11a-tetra-hydro-5H-pyrrolo[2,1-c][1,4]benzodiazepin-5-one]	2.1	4.2														
COc1cc2c(cc1OCCCCCC(=O)Nc1ccc(-c3nc4ccc(F)cc4s3)cc1)N=C[C@@H]1CCCN1C2=O [Compound 9h, 7-Methoxy-8-{5-[N^1-(4-(6-fluoro-1,3-benzothiazol-2-yl)phenyl)]pentanecarboxamide}oxy-(11aS)-1,2,3,11a-tetra-hydro-5H-pyrrolo[2,1-c][1,4]benzodiazepin-5-one]	4.2	2.3														
COc1cc2c(cc1OCCCCCOc1ccc(-c3nc4ccccc4s3)cc1)N=C[C@@H]1CCCN1C2=O [Compound 9c, 7-Methoxy-8-{5-[4-(1,3-benzothiazol-2-yl)phenoxy]pentyl}oxy-(11aS)-1,2,3,11a-tetrahydro-5H-pyrrolo[2,1-c][1,4]benzodiazepin-5-one]	4.1	4.3	−6.15	−4.35	−5.30	−5.87 to −6.65	224	851	676	1120	692	1350	794	288	525	
COc1cc(-c2nc3ccccc3s2)ccc1OCCCCOc1cc2c(cc1OC)C(=O)N1CCC[C@H]1C=N2 [Compound 9b, 7-Methoxy-8-{4-[4-(1,3-benzothiazol-2-yl)-2-methoxyphenoxy]butyl}oxy-(11aS)-1,2,3,11a-tetrahydro-5H-pyrrolo[2,1-c][1,4]benzodiazepin-5-one]	0.5	0.5	−6.07	−4.67	−5.47	−5.85 to −6.45	398	1230	759	1020	1170	1410	851	355	646	
COc1cc2c(cc1OCCCCOc1ccc(-c3nc4ccccc4s3)cc1)N=C[C@@H]1CCCN1C2=O [Compound 9a, 7-Methoxy-8-{4-[4-(1,3-benzothiazol-2-yl)phenoxy]butyl}oxy-(11aS)-1,2,3,11a-tetrahydro-5H-pyrrolo[2,1-c][1,4]benzodiazepin-5-one]	0.5	0.5	−6.30	−4.75	−5.63	−6.08 to −6.73										LC50 (50% cell kill) ([2]; Homo sapiens, read-out: log10 LC50 mean graph midpoint value (converted)): 17800 nM; log10 GI50 mean graph midpoint value [2, 3]: −6.30 mol/lit; log10 TGI mean graph midpoint value [2, 3]: −5.63 mol/lit; Log10 GI50 (Leukemia): −6.73 mol/L; Log10 GI50 (Non-small-cell-lung): −6.12 mol/L; Log10 GI50 (Colon): −6.38 mol/L; Log10 GI50 (CNS): −6.20 mol/L; Log10 GI50 (Melanoma): −6.10 mol/L; Log10 GI50 (Ovarian): −6.08 mol/L; Log10 GI50 (Renal): −6.33 mol/L; Log10 GI50 (Prostate): −6.55 mol/L; Log10 GI50 (Breast): −6.43 mol/L
COc1cc(-c2nc3ccccc3s2)ccc1OCCCCCOc1cc2c(cc1OC)C(=O)N1CCC[C@H]1C=N2 [Compound 9d, 7-Methoxy-8-{5-[4-(1,3-benzothiazol-2-yl)-2-methoxyphenoxy]pentyl}oxy-(11aS)-1,2,3,11a-tetrahydro-5H-pyrrolo[2,1-c][1,4]benzodiazepin-5-one]	6.2	6.3	−7.09	−4.37	−5.78	−6.79 to −7.51	30.9	95.5	83.2	100	83.2	162	110	33.9	56.2	
